{
  "source": "paper PMC6643834",
  "about": "(ACS Omega, 2018)",
  "key": {"[1]": {"system": "P. aeruginosa purine deoxyribonucleotide levels (bacterial RNR)", "assay": "DPA assay for dNTP quantification", "assay_type": "cell-based, P. aeruginosa PAO1", "conditions": "5 mM for 3 h, exponential phase, compared to negative control"}, "class Ia RNR (NrdA)": {"system": "class Ia RNR (NrdA)", "assay": "NrdA expression by Western immunoblot", "assay_type": "cell-based, P. aeruginosa PAO1", "conditions": "5 mM for 3 h, compared to the negative control"}, "[2]": {"system": "P. aeruginosa PAO1 static biofilms", "assay": "Static biofilm assay, P. aeruginosa", "assay_type": "cell-based, Pseudomonas aeruginosa"}, "[3]": {"system": "P. aeruginosa continuous-flow biofilms", "assay": "Flow cell biofilm assay", "assay_type": "cell-based, Pseudomonas aeruginosa", "conditions": "COMSTAT analysis"}, "Staph. aureus biofilm": {"system": "Staph. aureus biofilm", "assay": "Static biofilm assay, Staph. aureus", "assay_type": "cell-based, Staphylococcus aureus", "conditions": "treating with CIP"}, "[4]": {"system": "B. anthracis Sterne 7700 pXO1–/pXO2–", "assay": "microbe, parasite or virus in culture", "assay_type": "cell-based", "conditions": "Bacillus anthracis, 8 h, read-out: MIC50 Gram-positive Bant"}},
  "data": [
    {"smiles": "Cc1cc(F)ccc1CNO", "note": "[Compound 12, N-(4-Fluoro-2-methylbenzyl)hydroxylamine]", "values": [
      {"measurement": "reduction of dNTP levels", "setting": "[1]", "result": 67.50, "unit": "%"},
      {"measurement": "induction of NrdA expression (fold)", "setting": "class Ia RNR (NrdA)", "result": 3},
      {"measurement": "reduction of established biofilm", "setting": "[2]; after 72 h of treatment, highest concentrations", "result": "above 55%"},
      {"measurement": "decrease of biomass and average thickness", "setting": "[3]", "result": "more than 30%"}
    ]},
    {"smiles": "NC(=O)NO", "note": "[HU, hydroxyurea, reference compound]", "values": [
      {"measurement": "reduction of dNTP levels", "setting": "[1]", "result": 65.45, "unit": "%"}
    ]},
    {"smiles": "O=C(O)c1cn(C2CC2)c2cc(N3CCNCC3)c(F)cc2c1=O", "note": "[CIP, ciprofloxacin, reference compound]", "values": [
      {"measurement": "reduction of preestablished biofilm", "setting": "[2]; CIP 0.5 μg/mL, positive control", "result": "more than 85%"},
      {"measurement": "reduction of Staph. aureus biofilm", "setting": "Staph. aureus biofilm", "result": "around 60%"}
    ]},
    {"smiles": "COc1ccc(CNO)c(C)c1", "note": "[Compound 17, N-(4-Methoxy-2-methylbenzyl)hydroxylamine]", "values": [
      {"measurement": "MIC50", "setting": "[4]", "result": "< 15", "unit": "µg/mL"}
    ]}
  ]
}
